Columns and labels:
[1] = target: T1, Beta-secretase 1 (Homo sapiens, UniProt P56817); experiment: Inhibition of BACE1 (unknown origin)
[2] = target: T2, Acetylcholinesterase (Homo sapiens, UniProt P22303); experiment: Inhibition of AChE (unknown origin)
[3] = target: T1, Beta-secretase 1; experiment: Inhibition of BACE1 (unknown origin) at 5 uM relative to control
[4] = target: T2, Acetylcholinesterase; experiment: Inhibition of AChE (unknown origin) at 100 uM relative to control
[5] = target: T1, Beta-secretase 1; experiment: Inhibition of BACE1 (unknown origin) at 100 uM relative to control
[6] = target: T1, Beta-secretase 1; experiment: Inhibition of BACE1 (unknown origin) at 2.5 uM relative to control
[7] = target: Acetylcholinesterase (Electrophorus electricus, UniProt O42275); experiment: Inhibition of Electrophorus electricus AchE
[8] = target: T2, Acetylcholinesterase; experiment: Inhibition of human recombinant AchE
[9] = target: T1, Beta-secretase 1; experiment: Inhibition of human recombinant BACE1

T1 sequence (P56817 whole entry): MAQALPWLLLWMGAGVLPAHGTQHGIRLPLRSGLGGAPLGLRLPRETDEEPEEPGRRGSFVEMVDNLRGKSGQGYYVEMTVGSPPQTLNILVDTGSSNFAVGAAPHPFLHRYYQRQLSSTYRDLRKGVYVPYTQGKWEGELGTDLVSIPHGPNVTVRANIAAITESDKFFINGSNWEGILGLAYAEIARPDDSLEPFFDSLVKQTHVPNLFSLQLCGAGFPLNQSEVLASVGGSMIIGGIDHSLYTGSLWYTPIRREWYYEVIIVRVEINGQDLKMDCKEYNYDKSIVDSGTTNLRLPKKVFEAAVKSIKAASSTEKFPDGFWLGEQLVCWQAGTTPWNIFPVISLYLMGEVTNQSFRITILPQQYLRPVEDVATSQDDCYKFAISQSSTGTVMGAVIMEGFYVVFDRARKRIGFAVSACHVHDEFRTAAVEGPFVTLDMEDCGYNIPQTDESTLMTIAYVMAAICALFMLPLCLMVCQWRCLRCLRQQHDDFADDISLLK
T2 sequence (P22303 whole entry): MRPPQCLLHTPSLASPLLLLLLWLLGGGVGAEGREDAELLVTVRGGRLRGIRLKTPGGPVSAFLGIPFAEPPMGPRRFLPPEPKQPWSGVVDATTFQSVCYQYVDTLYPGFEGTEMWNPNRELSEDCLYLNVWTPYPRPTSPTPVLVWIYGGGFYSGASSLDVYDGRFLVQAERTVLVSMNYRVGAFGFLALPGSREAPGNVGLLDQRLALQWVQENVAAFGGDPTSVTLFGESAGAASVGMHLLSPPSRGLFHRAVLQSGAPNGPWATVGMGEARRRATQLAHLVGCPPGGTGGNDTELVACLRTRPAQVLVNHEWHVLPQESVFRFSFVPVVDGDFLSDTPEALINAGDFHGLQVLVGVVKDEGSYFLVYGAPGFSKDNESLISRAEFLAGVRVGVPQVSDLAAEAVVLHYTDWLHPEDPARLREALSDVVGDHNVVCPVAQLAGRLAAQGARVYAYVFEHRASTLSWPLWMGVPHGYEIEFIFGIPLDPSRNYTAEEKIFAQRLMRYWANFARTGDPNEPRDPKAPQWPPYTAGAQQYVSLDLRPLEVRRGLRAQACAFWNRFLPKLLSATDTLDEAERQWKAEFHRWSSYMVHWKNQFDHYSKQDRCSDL
Chain of Acetylcholinesterase (Electrophorus electricus, UniProt O42275) (O42275 whole entry): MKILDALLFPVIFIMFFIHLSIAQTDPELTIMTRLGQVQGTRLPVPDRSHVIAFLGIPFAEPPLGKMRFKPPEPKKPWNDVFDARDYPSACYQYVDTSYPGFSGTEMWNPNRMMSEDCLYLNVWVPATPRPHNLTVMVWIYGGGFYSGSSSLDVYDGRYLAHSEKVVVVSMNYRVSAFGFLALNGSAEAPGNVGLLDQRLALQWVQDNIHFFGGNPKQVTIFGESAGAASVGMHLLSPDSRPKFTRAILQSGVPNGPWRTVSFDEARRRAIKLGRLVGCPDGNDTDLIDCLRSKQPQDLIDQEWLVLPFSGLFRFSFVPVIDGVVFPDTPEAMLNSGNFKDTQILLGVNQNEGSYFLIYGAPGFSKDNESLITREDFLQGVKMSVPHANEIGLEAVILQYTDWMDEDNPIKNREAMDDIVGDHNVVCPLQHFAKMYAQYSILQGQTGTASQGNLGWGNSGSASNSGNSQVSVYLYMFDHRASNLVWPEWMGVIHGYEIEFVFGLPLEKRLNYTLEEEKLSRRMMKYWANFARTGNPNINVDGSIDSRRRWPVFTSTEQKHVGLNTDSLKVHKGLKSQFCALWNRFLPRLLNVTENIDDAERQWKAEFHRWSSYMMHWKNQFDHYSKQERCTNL

COc1cc(/C=C/c2nnc(-c3ccc(F)cc3F)o2)ccc1O gave an IC50 [1] of 0.624 nM and an IC50 [2] of 0.19 nM.
Work on COc1ccccc1NCC1CCN(Cc2ccccc2)CC1 yielded an IC50 [1] of 277 nM and an IC50 [2] of 157 nM.
In the case of COc1cc2c(cc1OC)CC(CC1CCN(CCNc3c4c(nc5cc(Cl)ccc35)CC3C=C(C)CC4C3)CC1)C2 (configuration not stated), the inhibition [3] is reported as 24.6% and the IC50 [2] is reported as 13 nM.
COc1cc2c(cc1CC=C(C)C)C(=O)CC(c1ccc(O)cc1)O2 (configuration not stated) showed an inhibition [4] of 80% and an inhibition [5] of 20%.
For COc1cc2c(cc1OC)CC(CC1CCN(CCCNc3c4c(nc5cc(Cl)ccc35)CC3C=C(C)CC4C3)CC1)C2 (racemic) [listing 1 of 2 here], the inhibition [3] was 29.1%.
In the case of COc1ccccc1NC(=O)C1CCN(C(=O)c2ccccc2)CC1, the IC50 [1] is reported as 18.5 nM and the IC50 [2] is reported as 8.46 nM.
For O=c1c(/C=N/Nc2ccc(C(F)(F)F)cc2)coc2c1ccc1oc(-c3cccc(F)c3)cc12, the IC50 [1] was 15800 nM and the IC50 [2] was 10400 nM.
Work on COc1cc(/C=C/c2nnc(-c3ccc(Cl)cc3Cl)o2)ccc1O yielded an IC50 [1] of 0.864 nM and an IC50 [2] of 0.22 nM.
Molecule O=C(/C=C/c1ccc(O)c(O)c1)O[C@@H]1[C@H](O)C[C@@](O)(C(=O)O)C[C@H]1OC(=O)/C=C/c1ccc(O)c(O)c1 has an IC50 [1] of 3310 nM and an IC50 [2] of 2140 nM.
With OCCc1ccc(O)c(O)c1 [HYDROXYTYROSOL] the IC50 [1] was 35 nM.
For COc1ccc(C(=O)N2Cc3ccc(N4C(=O)c5ccccc5C4=O)cc3CC2=O)cc1, the IC50 [1] was 1.69 nM and the IC50 [2] was 81.8 nM.
Work on Cc1cccc(C(=O)N2Cc3ccc(N4C(=O)c5ccccc5C4=O)cc3CC2=O)c1 yielded an IC50 [1] of 4.45 nM and an IC50 [2] of 25.5 nM.
Work on COc1ccc(NC(=O)C2CCN(C(=O)c3ccccc3)CC2)cc1 yielded an IC50 [1] of 19.1 nM and an IC50 [2] of 9.78 nM.
O=C(/C=C/c1ccc(F)cc1)c1cc(I)c(Br)cc1O was tested, and the IC50 [1] was 4.7 nM and the IC50 [2] was 11 nM.
COc1cc(O)c(C(=O)/C=C/c2ccc(O)cc2)cc1CC=C(C)C was tested, and the inhibition [4] was 46% and the inhibition [5] was 68%.
For COc1ccc(-c2oc3cc(OC)c(I)cc3c(=O)c2O)cc1, the IC50 [1] was 22.4 nM and the IC50 [2] was 7.19 nM.
COc1ccc(-c2oc3cc(Br)c(I)cc3c(=O)c2O)cc1 gave an IC50 [1] of 15.7 nM.
With COc1cc2c(cc1OC)CC(CC1CCN(CCCNc3c4c(nc5cc(Cl)ccc35)CC3C=C(C)CC4C3)CC1)C2 (single isomer, unassigned; (-)) [listing 1 of 2 here] the inhibition [3] was 30.8%.
With COc1ccc(-c2cc3cc4c(=O)c(/C=N/Nc5ccc(C(F)(F)F)cc5)coc4cc3o2)cc1 the IC50 [1] was 25300 nM and the IC50 [2] was 5400 nM.
CCC1=CC2Cc3nc4cc(Cl)ccc4c(NCCCN4CCC(CC5Cc6cc(OC)c(OC)cc6C5)CC4)c3C(C1)C2 (racemic) [listing 1 of 2 here] gave an IC50 [2] of 6.32 nM.
For C[C@@H]1O[C@@H](O[C@@H]2[C@@H](O)[C@H](OCCc3ccc(O)c(O)c3)O[C@H](CO)[C@H]2OC(=O)/C=C/c2ccc(O)c(O)c2)[C@H](O)[C@H](O)[C@H]1O [ACETOSIDE], the IC50 [1] was 6.3 nM.
In the case of COc1ccc(NCC2CCN(Cc3ccccc3)CC2)cc1OC, the IC50 [1] is reported as 243 nM and the IC50 [2] is reported as 145 nM.
O=C(NCCCCCCCNc1c2c(nc3cc(Cl)ccc13)CCCC2)c1ccc2nc(-c3ccc(Cl)cc3)c3c(c2c1)OCCC3 showed an inhibition [6] of 14.5%.
O=c1c(/C=N/Nc2ccc(C(F)(F)F)cc2)coc2cc3oc(-c4cccc(Cl)c4)cc3cc12 gave an IC50 [1] of 32800 nM and an IC50 [2] of 18300 nM.
In the case of COc1cc(/C=C/c2nnc(-c3ccc(C(F)(F)F)cc3)o2)ccc1O, the IC50 [1] is reported as 0.255 nM and the IC50 [2] is reported as 0.068 nM.
For O=c1c(O)c(-c2ccc(Cl)cc2)oc2cc(F)c(I)cc12, the IC50 [1] was 16.7 nM and the IC50 [2] was 3.45 nM.
With CCC1=CC2Cc3nc4cc(Cl)ccc4c(NCCN4CCC(CC5Cc6cc(OC)c(OC)cc6C5)CC4)c3C(C1)C2 (single isomer, unassigned; (-)) the inhibition [3] was 12.5% and the IC50 [2] was 28.6 nM.
O=c1c(O)c(-c2ccc(F)cc2)oc2cc(F)c(I)cc12 gave an IC50 [1] of 32.2 nM and an IC50 [2] of 3.23 nM.
CC(C)=CCC/C(C)=C/CC/C(C)=C\Cc1c(O)cc(O)c(CC=C(C)C)c1-c1cc2ccc(O)cc2o1 was tested, and the IC50 [1] was 2030 nM and the IC50 [2] was 13900 nM.
In the case of O=c1c(O)c(-c2ccc(O)c(O)c2)oc2cc(O)cc(O)c12 [QUERCETIN], the IC50 [2] is reported as 2910 nM.
COc1cc2c(cc1OC)CC(CC1CCN(CCCNc3c4c(nc5cc(Cl)ccc35)CC3C=C(C)CC4C3)CC1)C2 (single isomer, unassigned; (-)) [listing 2 of 2 here] showed an IC50 [2] of 2.61 nM.
O=c1c(/C=N/Nc2ccc(C(F)(F)F)cc2)coc2cc3oc(-c4cccc(F)c4)cc3cc12 gave an IC50 [1] of 17300 nM and an IC50 [2] of 7600 nM.
O=C(CCc1ccc2nc(-c3ccccc3)c3c(c2c1)OCCC3)NCCCCCCNc1c2c(nc3cc(Cl)ccc13)CCCC2 showed an inhibition [6] of 19.6%.
COc1cc(O)c(C(=O)/C=C/c2ccc(F)cc2)cc1I gave an IC50 [1] of 25.1 nM and an IC50 [2] of 9.38 nM.
Molecule O=C(NCCCCCCCCNc1c2c(nc3cc(Cl)ccc13)CCCC2)c1ccc2nc(-c3ccc(Cl)cc3)c3c(c2c1)OCCC3 has an inhibition [6] of 18.5%.
In the case of CC(C)=CCC/C(C)=C/Cc1c(O)ccc2cc(-c3cc(O)cc(O)c3CC=C(C)C)oc12 [MULBERROFURAN D], the IC50 [1] is reported as 3740 nM and the IC50 [2] is reported as 23000 nM.
With COc1ccccc1C(=O)N1Cc2ccc(N3C(=O)c4ccccc4C3=O)cc2CC1=O the IC50 [1] was 2.96 nM and the IC50 [2] was 81.7 nM.
COc1cc(/C=C/c2nnc(-c3ccc(Cl)cc3)o2)ccc1O showed an IC50 [1] of 0.628 nM and an IC50 [2] of 0.334 nM.
In the case of COc1cc(/C=C/c2nnc(-c3ccc(OC(F)(F)F)cc3)o2)ccc1O, the IC50 [1] is reported as 0.211 nM and the IC50 [2] is reported as 0.092 nM.
In the case of CCC1=CC2Cc3nc4cc(Cl)ccc4c(NCCCN4CCC(CC5Cc6cc(OC)c(OC)cc6C5)CC4)c3C(C1)C2 (racemic) [listing 2 of 2 here], the inhibition [3] is reported as 18%.
Molecule Cc1cc2c(c(C)c1CCO[C@@H]1O[C@H](CO)[C@@H](O)[C@H](O)[C@H]1O)C(=O)[C@H](C)C2 has an IC50 [1] of 18000 nM and an IC50 [2] of 2550 nM.
Molecule Cc1cc2c(c(C)c1CCO[C@@H]1O[C@H](CO)[C@@H](O)[C@H](O)[C@H]1O)C(=O)C(C)(C)[C@H]2O has an IC50 [1] of 10700 nM and an IC50 [2] of 27400 nM.
Molecule COc1ccc(/C=C/C(=O)c2cc(I)c(Cl)cc2O)cc1 has an IC50 [1] of 13.8 nM and an IC50 [2] of 11.7 nM.
Molecule O=C1Cc2cc(N3C(=O)c4ccccc4C3=O)ccc2CN1C(=O)c1ccccc1 has an IC50 [1] of 5.87 nM and an IC50 [2] of 65.6 nM.
CCC1=CC2Cc3nc4cc(Cl)ccc4c(NCCCN4CCC(CC5Cc6cc(OC)c(OC)cc6C5)CC4)c3C(C1)C2 (stereo in doubt; (-)-36b) [listing 1 of 2 here] gave an IC50 [2] of 3.85 nM.
CC(C)=CCCC1(C)C=Cc2c(ccc3cc(-c4cc(O)cc(O)c4CC=C(C)C)oc23)O1 (configuration not stated) was tested, and the IC50 [2] was 4610 nM.
With C[C@@H]1O[C@@H](OC[C@H]2O[C@@H](Oc3c(-c4ccc(O)c(O)c4)oc4cc(O)cc(O)c4c3=O)[C@H](O)[C@@H](O)[C@@H]2O)[C@H](O)[C@H](O)[C@H]1O [RUTIN] the IC50 [1] was 3.8 nM and the IC50 [2] was 113000 nM.
For Oc1cc(O)cc(Oc2c(O)cc(O)c3c2Oc2c(cc(O)c(-c4c(O)cc5c(c4O)Oc4c(Oc6cc(O)cc(O)c6)c(O)cc(O)c4O5)c2O)O3)c1, the IC50 [2] was 4590 nM.
For COc1cc(/C=C/c2nnc(-c3ccc(F)cc3)o2)ccc1O, the IC50 [1] was 0.479 nM and the IC50 [2] was 0.284 nM.
COc1cc2c(cc1OC)CC(CC1CCN(CCCNc3c4c(nc5cc(Cl)ccc35)CC3C=C(C)CC4C3)CC1)C2 (racemic) [listing 2 of 2 here] was tested, and the IC50 [2] was 5.37 nM.
COc1ccc(NCC2CCN(Cc3ccccc3)CC2)cc1 was tested, and the IC50 [1] was 253 nM and the IC50 [2] was 165 nM.
Cc1cc2c(c(C)c1CCO[C@@H]1O[C@H](CO)[C@@H](O)[C@H](O)[C@H]1O)C(=O)[C@H](C)[C@H]2O gave an IC50 [1] of 9740 nM and an IC50 [2] of 3770 nM.
Work on O=C(CCc1ccc2nc(-c3ccccc3)c3c(c2c1)OCCC3)NCCCCCCCNc1c2c(nc3cc(Cl)ccc13)CCCC2 yielded an IC50 [2] of 11.4 nM and an inhibition [6] of 34.4%.
In the case of CC(C)=CCc1c(O)ccc(C(=O)/C=C/c2ccc(O)cc2)c1O, the inhibition [4] is reported as 83% and the inhibition [5] is reported as 34%.
Work on CC(C)=CCc1cc2c(cc1O)O[C@H](c1ccc(O)cc1)CC2=O yielded an inhibition [4] of 34% and an inhibition [5] of 14%.
C/C(=C\C1=CCN(C(=O)CCc2ccccc2)C(=O)C1)N1C(=O)c2ccccc2C1=O gave an IC50 [1] of 2.07 nM and an IC50 [2] of 55.3 nM.
With CC12CC(c3c(O)cc(-c4cc5ccc(O)cc5o4)cc3O)CC3c4ccc(O)cc4OC31C2 (configuration not stated) the IC50 [1] was 1040 nM and the IC50 [2] was > 200000 nM.
In the case of COc1cc(O)cc(-c2cc3ccc(O)c(C/C=C(\C)CCC=C(C)C)c3o2)c1CC=C(C)C, the IC50 [2] is reported as > 200000 nM.
In the case of COc1ccc(NC(=O)C2CCN(C(=O)c3ccccc3)CC2)cc1OC, the IC50 [1] is reported as 18.3 nM and the IC50 [2] is reported as 4.11 nM.
With CCC1=CC2Cc3nc4cc(Cl)ccc4c(NCCCN4CCC(CC5Cc6cc(OC)c(OC)cc6C5)CC4)c3C(C1)C2 (stereo in doubt; (-)-36b) [listing 2 of 2 here] the inhibition [3] was 14.9%.
COc1ccc(/C=C/C(=O)c2cc(I)c(OC)cc2O)cc1 was tested, and the IC50 [1] was 70.8 nM and the IC50 [2] was 11 nM.
Molecule O=c1c(/C=N/Nc2ccc(C(F)(F)F)cc2)coc2c1ccc1oc(-c3ccc(Cl)cc3)cc12 has an IC50 [1] of 13600 nM and an IC50 [2] of 5400 nM.
Work on Cc1cc2c(c(C)c1CCO[C@@H]1O[C@H](CO)[C@@H](O)[C@H](O)[C@H]1O)C(=O)[C@@H](C)[C@H]2O yielded an IC50 [2] of 9170 nM.
Molecule C/C=C1/C(O[C@@H]2O[C@H](CO)[C@@H](O)[C@H](O)[C@H]2O)OC=C(C(=O)OC)C1CC(=O)OCCc1ccc(O)c(O)c1 (some centres not stated) has an IC50 [1] of 2760 nM.
Molecule CCCCCCCCCCCC1=CC(=O)C=CC1=O has an IC50 [7] of 2500 nM, an IC50 [8] of 7910 nM and an IC50 [9] of 2110 nM.
Molecule O=C(CCc1ccc2nc(-c3ccccc3)c3c(c2c1)OCCC3)NCCCCCCCCNc1c2c(nc3cc(Cl)ccc13)CCCC2 has an inhibition [6] of 77.8%.

Reference: ChEMBL document CHEMBL5241074, “Dual-target compounds for Alzheimer's disease: Natural and synthetic AChE and BACE-1 dual-inhibitors and their structure-activity relationship (SAR)” (Eur J Med Chem, 2021)
